Drawing on US12637414B2, “Arylamides and methods of use thereof” (Genzyme Corporation, priority 2019, dated 2026), this text covers EC50 and Emax for 26 molecules.

A word on the pEC50: it is the EC50 on a negative log10 scale, so that one unit is a factor of ten. A high value points to a small EC50. By Emax is commonly meant the maximal effect, on the per cent scale that the assay sets.

pEC50: −log10 of the molar value.

The target in the assay is T1, human Cystic Fibrosis Transmembrane Conductance Regulator (CFTR) harboring the ΔF508 mutation (Homo sapiens, UniProt P13569, DEL508-508).
T1 construct: expressed in transfected cells; host or cells: H441 carcinoma line (G418 selection)
T1 sequence (P13569 with tags, fused parts or gaps DEL508-508): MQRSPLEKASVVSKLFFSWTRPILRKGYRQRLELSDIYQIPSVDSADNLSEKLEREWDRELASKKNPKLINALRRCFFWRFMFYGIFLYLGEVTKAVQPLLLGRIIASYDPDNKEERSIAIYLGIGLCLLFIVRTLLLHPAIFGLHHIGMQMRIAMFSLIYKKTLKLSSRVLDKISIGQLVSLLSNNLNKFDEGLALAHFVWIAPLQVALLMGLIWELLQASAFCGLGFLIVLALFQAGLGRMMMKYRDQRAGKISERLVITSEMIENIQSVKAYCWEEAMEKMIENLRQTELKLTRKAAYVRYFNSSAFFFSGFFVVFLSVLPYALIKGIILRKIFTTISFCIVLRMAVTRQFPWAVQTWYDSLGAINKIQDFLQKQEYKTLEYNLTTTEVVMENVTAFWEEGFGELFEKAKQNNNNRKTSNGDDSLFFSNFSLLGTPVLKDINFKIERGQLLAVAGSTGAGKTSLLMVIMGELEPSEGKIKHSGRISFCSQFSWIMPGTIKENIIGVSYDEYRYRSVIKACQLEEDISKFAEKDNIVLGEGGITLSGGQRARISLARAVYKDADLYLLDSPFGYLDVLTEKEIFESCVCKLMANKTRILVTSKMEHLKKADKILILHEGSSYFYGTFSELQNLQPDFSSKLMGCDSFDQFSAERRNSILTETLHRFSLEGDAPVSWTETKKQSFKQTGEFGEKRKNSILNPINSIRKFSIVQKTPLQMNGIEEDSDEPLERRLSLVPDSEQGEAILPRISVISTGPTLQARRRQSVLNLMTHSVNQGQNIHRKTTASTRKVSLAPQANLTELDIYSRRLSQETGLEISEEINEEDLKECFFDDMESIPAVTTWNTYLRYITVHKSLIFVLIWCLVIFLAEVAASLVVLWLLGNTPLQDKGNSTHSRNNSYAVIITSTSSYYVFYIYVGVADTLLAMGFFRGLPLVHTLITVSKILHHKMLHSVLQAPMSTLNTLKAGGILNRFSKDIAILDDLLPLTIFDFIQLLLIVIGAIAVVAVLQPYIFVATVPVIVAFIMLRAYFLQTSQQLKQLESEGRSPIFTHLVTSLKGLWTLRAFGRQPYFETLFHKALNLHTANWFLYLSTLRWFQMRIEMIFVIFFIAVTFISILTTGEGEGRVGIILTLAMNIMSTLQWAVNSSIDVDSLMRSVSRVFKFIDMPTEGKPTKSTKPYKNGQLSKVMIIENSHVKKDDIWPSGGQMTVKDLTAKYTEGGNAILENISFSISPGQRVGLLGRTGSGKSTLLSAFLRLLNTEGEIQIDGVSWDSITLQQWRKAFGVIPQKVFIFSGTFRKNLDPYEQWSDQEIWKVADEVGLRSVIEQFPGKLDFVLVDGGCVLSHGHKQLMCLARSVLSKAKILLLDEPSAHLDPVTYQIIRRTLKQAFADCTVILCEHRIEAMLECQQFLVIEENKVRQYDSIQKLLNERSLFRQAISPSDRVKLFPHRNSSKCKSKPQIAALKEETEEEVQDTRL
Briefly: H441 cell Emax and EC50: HRP-tagged ΔF508-CFTR cell surface luminescence assay. Type of assay: cell-based. The settings on record: H441 cells expressing ΔF508-CFTR-HRP, 27° C., two nights; for pEC50: 15-point dose-response, top 24.5 μM; for Emax: NCI-H441, % of maximum VX809 signal. An outline of the steps: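 Cells express ΔF508-CFTR carrying an HRP tag in extracellular loop 4 (CMV promoter); ~10K cells/well treated with a 15-point series from 24.5 µM and incubated two nights at 27° C. Surface CFTR read by luminescence from HRP substrate. EC50 and Emax given relative to maximal VX809 (260 µM stock) signal.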

As to `O=C(N[C@H](C(=O)O)C12CC3CC(CC(C3)C1)C2)c1ccc2sccc2c1OCC1CCC(F)(F)CC1` [compound 106, (2S)-2-(1-adamantyl)-2-[[4-[(4,4-difluorocyclohexyl)methoxy]benzothiophene-5-carbonyl]amino]acetic acid], the pEC50 was 5.44 and the Emax came to 156%.
Turning to `O=C(N[C@H](C(=O)O)C12CC3CC(CC(C3)C1)C2)c1ccc2sccc2c1OCc1ccc(OC(F)F)cc1` [compound 107, (2S)-2-(1-adamantyl)-2-[[4-[[4-(difluoromethoxy)phenyl]methoxy]benzothiophene-5-carbonyl]amino]acetic acid], the Emax was -7.7%.
Regarding `O=C(N[C@H](C(=O)O)C12CC3CC(CC(O)(C3)C1)C2)c1ccc2sccc2c1OCC1CCC(F)(F)CC1` [compound 108, (2S)-2-[[4-[(4,4-difluorocyclohexyl)methoxy]benzothiophene-5-carbonyl]amino]-2-(3-hydroxy-1-adamantyl)acetic acid], the pEC50 was 4.94 and the Emax worked out at 78.4%.
For `O=C(N[C@H](C(=O)O)C12CC3CC(CC(O)(C3)C1)C2)c1ccc2sccc2c1OCc1ccc(OC(F)(F)F)cc1` [compound 109, (2S)-2-(3-hydroxy-1-adamantyl)-2-[[4-[[4-(trifluoromethoxy)phenyl]methoxy]benzothiophene-5-carbonyl]amino]acetic acid], the pEC50 is 5.75 and the Emax is 121%.
As to `O=C(N[C@H](C(=O)O)C12CC3CC(CC(C3)C1)C2)c1ccc2sccc2c1OCc1ccc(Cl)c(Cl)c1` [compound 110, (2S)-2-(1-adamantyl)-2-[[4-[(3,4-dichlorophenyl)methoxy]benzothiophene-5-carbonyl]amino]acetic acid], the pEC50 is 6.42 and the Emax is 173%.
`O=C(N[C@H](C(=O)O)C12CC3CC(CC(C3)C1)C2)c1ccc2sccc2c1OCc1ccc(OC(F)(F)F)cc1` [compound 111, (2S)-2-(1-adamantyl)-2-[[4-[[4-(trifluoromethoxy)phenyl]methoxy]benzothiophene-5-carbonyl]amino]acetic acid]: the negative-log EC50 (pEC50) was 6.58 and the Emax was 165%.
As to `O=C(N[C@H](C(=O)O)C12CC3CC(CC(C3)C1)C2)c1ccc2sccc2c1OCc1ccc(C(F)(F)F)cc1` [compound 112, (2S)-2-(1-adamantyl)-2-[[4-[[4-(trifluoromethyl)phenyl]methoxy]benzothiophene-5-carbonyl]amino]acetic acid], the negative-log EC50 (pEC50) was 6.44 and the Emax was 190%.
`O=C(N[C@H](C(=O)O)C12CC3CC(CC(C3)C1)C2)c1ccc2sccc2c1OCc1nc2ccccc2s1` [compound 113, (2S)-2-(1-adamantyl)-2-[[4-(1,3-benzothiazol-2-ylmethoxy)benzothiophene-5-carbonyl]amino]acetic acid]: the pEC50 is 6.22 and the Emax turned out to be 184%.
With `O=C(N[C@H](C(=O)O)C12CC3CC(CC(C3)C1)C2)c1ccc2sccc2c1OCc1ccc(S(F)(F)(F)(F)F)cc1` [compound 114], the pEC50 is 6.33 and the Emax worked out at 119%.
In the case of `O=C(N[C@H](C(=O)O)C12CC3CC(CC(C3)C1)C2)c1ccc2sccc2c1OCc1nc(C(F)(F)F)cs1` [compound 115, (2S)-2-(1-adamantyl)-2-[[4-[[4-(trifluoromethyl)thiazol-2-yl]methoxy]benzothiophene-5-carbonyl]amino]acetic acid], the pEC50 is 5.55 and the Emax was 106%.
For `O=C(N[C@H](C(=O)O)C12CC3CC(CC(C3)C1)C2)c1ccc2occc2c1OCC1CCCCC1` [compound 116, (2S)-2-(1-adamantyl)-2-[[4-(cyclohexylmethoxy)benzofuran-5-carbonyl]amino]acetic acid], in that order: 5.75 and 212%.
In the case of `O=C(N[C@H](C(=O)O)C12CC3CC(CC(C3)C1)C2)c1ccn2cccc2c1OCc1ccc(C(F)(F)F)cc1` [compound 117, (2S)-2-(1-adamantyl)-2-[[8-[[4-(trifluoromethyl)phenyl]methoxy]indolizine-7-carbonyl]amino]acetic acid], the pEC50 is 6.76 and the Emax turned out to be 160%.
As for `O=C(N[C@H](C(=O)O)C12CC3CC(CC(C3)C1)C2)c1ccn2cccc2c1OCc1ccc(OC(F)(F)F)cc1` [compound 118, (2S)-2-(1-adamantyl)-2-[[8-[[4-(trifluoromethoxy)phenyl]methoxy]indolizine-7-carbonyl]amino]acetic acid; 2,2,2-trifluoroacetic acid], the pEC50 is 6.55 and the Emax was found to be 141%.
For `O=C(O)[C@@H](N1CN(Cc2ccc(OC(F)(F)F)cc2)c2c(ccc3ccccc23)C1=O)C12CC3CC(CC(O)(C3)C1)C2` [compound 119], the pEC50 is 6.21 and the Emax was 71%.
As for `O=C(N[C@H](C(=O)O)C12CC3CC(CC(C3)C1)C2)c1ccc2occc2c1OCc1ccc(Cl)c(Cl)c1` [compound 120, (2S)-2-(1-adamantyl)-2-[[4-[(3,4-dichlorophenyl)methoxy]benzofuran-5-carbonyl]amino]acetic acid], the pEC50 is 6.58 and the Emax turned out to be 141%.
With `O=C(O)[C@@H](N1CN(Cc2ccc(SC(F)(F)F)cc2)c2c(ccc3ccccc23)C1=O)C12CC3CC(CC(O)(C3)C1)C2` [compound 121, (2S)-2-(3-hydroxy-1-adamantyl)-2-[4-oxo-1-[[4-(trifluoromethylsulfanyl)phenyl]methyl]-2H-benzo[h]quinazolin-3-yl]acetic acid], the pEC50 is 5.79 and the Emax turned out to be 56.5%.
In the case of `O=C(N[C@H](C(=O)O)C12CC3CC(CC(C3)C1)C2)c1ccc2occc2c1OCc1nc2ccccc2s1` [compound 122, (2S)-2-(1-adamantyl)-2-[[4-(1,3-benzothiazol-2-ylmethoxy)benzofuran-5-carbonyl]amino]acetic acid], the negative logarithm of the EC50 (pEC50) is 5.82 and the Emax came out at 171%.
For the molecule `O=C(N[C@H](C(=O)O)C12CC3CC(CC(C3)C1)C2)c1ccc2ccccc2c1NCc1ccc(SC(F)(F)F)cc1` [compound 123, (2S)-2-(1-adamantyl)-2-[[1-[[4-(trifluoromethylsulfanyl)phenyl]methylamino]naphthalene-2-carbonyl]amino]acetic acid], the pEC50 is 6.56 and the Emax came out at 51.9%.
The corresponding values for `O=C(N[C@H](C(=O)O)C12CC3CC(CC(C3)C1)C2)c1ccc2occc2c1OCc1ccc(OC(F)(F)F)cc1` [compound 124, (2S)-2-(1-adamantyl)-2-[[4-[[4-(trifluoromethoxy)phenyl]methoxy]benzofuran-5-carbonyl]amino]acetic acid] are 6.33 and 116%.
The corresponding values for `O=C(O)[C@@H](N1CN(Cc2ccc(C(F)(F)F)cc2)c2c(ccc3ccccc23)C1=O)C12CC3CC(CC(C3)C1)C2` [compound 125, (2S)-2-(1-adamantyl)-2-[4-oxo-1-[[4-(trifluoromethyl)phenyl]methyl]-2H-benzo[h]quinazolin-3-yl]acetic acid] are 6.96 and 66%.
On to `O=C(O)[C@@H](N1CN(Cc2ccc(SC(F)(F)F)cc2)c2c(ccc3ccccc23)C1=O)C12CC3CC(CC(C3)C1)C2` [compound 126, (2S)-2-(1-adamantyl)-2-[4-oxo-1-[[4-(trifluoromethylsulfanyl)phenyl]methyl]-2H-benzo[h]quinazolin-3-yl]acetic acid], for which the pEC50 is 6.32 and the Emax was 42.2%.
With `O=C(N[C@H](C(=O)O)C12CC3(Cl)CC(Cl)(CC(Cl)(C3)C1)C2)c1ccc2ccccc2c1NCc1ccc(SC(F)(F)F)cc1` [compound 127, (2S)-2-(3,5,7-trichloro-1-adamantyl)-2-[[1-[[4-(trifluoromethylsulfanyl)phenyl]methylamino]naphthalene-2-carbonyl]amino]acetic acid], the pEC50 is 6.20 and the Emax stood at 75.5%.
Take `O=C(N[C@H](C(=O)O)C12CC3CC(CC(C3)C1)C2)c1ccc2occc2c1OCc1ccc(C(F)(F)F)cc1` [compound 128, (2S)-2-(1-adamantyl)-2-[[4-[[4-(trifluoromethyl)phenyl]methoxy]benzofuran-5-carbonyl]amino]acetic acid]: the pEC50 is 6.61 and the Emax is 133%.
On to `C[C@H]1N(Cc2ccc(C(F)(F)F)cc2)c2c(ccc3ccccc23)C(=O)N1[C@H](C(=O)O)C12CC3CC(CC(C3)C1)C2` [compound 129, (2S)-2-(1-adamantyl)-2-[(2S)-2-methyl-4-oxo-1-[[4-(trifluoromethyl)phenyl]methyl]-2H-benzo[h]quinazolin-3-yl]acetic acid], for which the negative-log EC50 (pEC50) is 7.05 and the Emax worked out at 34.9%.
For `O=C(N[C@H](C(=O)O)C12CC3CC(Cl)(CC(Cl)(C3)C1)C2)c1ccc2ccccc2c1NCc1ccc(SC(F)(F)F)cc1` [compound 130, (2S)-2-(3,5-dichloro-1-adamantyl)-2-[[1-[[4-(trifluoromethylsulfanyl)phenyl]methylamino]naphthalene-2-carbonyl]amino]acetic acid], in that order: 6.32 and 60.6%.
On to `O=C(N[C@H](C(=O)O)C12CC3CC(CC(O)(C3)C1)C2)c1ccc2ccccc2c1NCc1ccc(SC(F)(F)F)cc1` [compound 131, (2S)-2-(3-hydroxy-1-adamantyl)-2-[[1-[[4-(trifluoromethylsulfanyl)phenyl]methylamino]naphthalene-2-carbonyl]amino]acetic acid], for which the pEC50 is 5.85 and the Emax is 21.7%.
